≈ marks a conversion by molar mass, not a printed value.
Columns and labels:
Assay type in all cases: functional
[1] = test system: Brachyspira hyodysenteriae; test: Antibacterial activity against Serpulina (Treponema) hyodysenteriae (the causative organism of swine dysentery).
Pasteurella multocida = test: Antibacterial activity against Pasteurella multocida (an important animal respiratory pathogen).
[2] = test system: Brachyspira hyodysenteriae; test: Compound was tested for antibacterial activity against Serpulina (Treponema hyodysenteriae (the causative organism of swine dysentery)

Row | SMILES | MIC [1] | MIC (Pasteurella multocida) | MIC [2]
1 | C=CCOc1c(F)cc(/C=C(\C)C(=O)N[C@@H]2[C@H](O)[C@@H](O)[C@H]3OCO[C@H]3[C@@H]2O)c(F)c1O | 50 µg/mL (≈ 113 µM) | 100 µg/mL (≈ 226 µM) | –
2 | C=CCOc1c(Br)cc(/C=C(/C)C(=O)N[C@@H]2[C@H](O)[C@@H](O)[C@H]3OCO[C@H]3[C@@H]2O)cc1Br | > 200 µg/mL | > 200 µg/mL | –
3 | C=CCOc1c(F)cc(/C=C(/C)C(=O)N[C@@H]2[C@H](O)[C@@H](O)[C@H]3OCO[C@H]3[C@@H]2O)cc1F | 25 µg/mL (≈ 58.5 µM) | > 200 µg/mL | –
4 | C=CCOc1c(O)cc(/C=C(/C)C(=O)N[C@@H]2[C@H](O)[C@@H](O)[C@H]3OCO[C@H]3[C@@H]2O)cc1Br | > 200 µg/mL | > 200 µg/mL | –
5 | C=CCOc1ccc(/C=C(/C)C(=O)N[C@@H]2[C@H](O)[C@@H](O)[C@H]3OCO[C@H]3[C@@H]2O)cc1Br | 12.5 µg/mL (≈ 26.6 µM) | > 200 µg/mL | –
6 | C=CCOc1ccc(/C=C(\C)C(=O)N[C@@H]2[C@H](O)[C@@H](O)[C@H]3OCO[C@H]3[C@@H]2O)c(Cl)c1 | > 200 µg/mL | > 200 µg/mL | –
7 | C=CCOc1ccc(/C=C(\C)C(=O)N[C@@H]2[C@H](O)[C@@H](O)[C@H]3OCO[C@H]3[C@@H]2O)c(F)c1 | 3.13 µg/mL (≈ 7.65 µM) | 25 µg/mL (≈ 61.1 µM) | –
8 | C=CCOc1ccc(/C=C(/C)C(=O)N[C@@H]2[C@H](O)[C@@H](O)[C@H]3OCO[C@H]3[C@@H]2O)cc1CO | – | 100 µg/mL (≈ 237 µM) | –
9 | C=CCOc1ccc(/C=C(/C)C(=O)N[C@@H]2[C@H](O)[C@@H](O)[C@H]3OCO[C@H]3[C@@H]2O)cc1F | 1.56 µg/mL (≈ 3.81 µM) | 50 µg/mL (≈ 122 µM) | –
10 | C=CCOc1ccc(/C=C(/C)C(=O)N[C@@H]2[C@H](O)[C@@H](O)[C@H]3OCO[C@H]3[C@@H]2O)cc1NS(C)(=O)=O | > 200 µg/mL | > 200 µg/mL | –
11 | C=CCOc1ccc(/C=C(/C)C(=O)N[C@@H]2[C@H](O)[C@@H](O)[C@H]3OCO[C@H]3[C@@H]2O)cc1N | 0.78 µg/mL (≈ 1.92 µM) | 0.78 µg/mL (≈ 1.92 µM) | –
12 | C=CCOc1ccc(/C=C(/C)C(=O)N[C@@H]2[C@H](O)[C@@H](O)[C@H]3OCO[C@H]3[C@@H]2O)cc1OC | > 200 µg/mL | > 200 µg/mL | –
13 | C=CCOc1ccc(/C=C(\C)C(=O)N[C@@H]2[C@H](O)[C@@H](O)[C@H]3OCO[C@H]3[C@@H]2O)cc1CNCC | – | > 200 µg/mL | –
14 | C=CCOc1cc(F)c(/C=C(/C)C(=O)N[C@@H]2[C@H](O)[C@@H](O)[C@H]3OCO[C@H]3[C@@H]2O)cc1F | 1.56 µg/mL (≈ 3.65 µM) | 25 µg/mL (≈ 58.5 µM) | –
15 | C=CCOc1ccc(/C=C(/C)C(=O)N[C@@H]2[C@H](O)[C@@H](O)[C@H]3OCO[C@H]3[C@@H]2O)cc1 | 6.25 µg/mL (≈ 16 µM) | 50 µg/mL (≈ 128 µM) | –
16 | C=CCOc1ccc(/C=C(/C)C(=O)N[C@@H]2[C@H](O)[C@@H](O)[C@H]3OCO[C@H]3[C@@H]2O)cc1O | – | 0.78 µg/mL (≈ 1.91 µM) | 0.78 µg/mL (≈ 1.91 µM)
17 | C=CCOc1ccc(/C=C(/C)C(=O)N[C@@H]2[C@H](O)[C@@H](O)[C@H]3OCO[C@H]3[C@@H]2O)cc1NC(C)=O | > 200 µg/mL | > 200 µg/mL | –
18 | C=CCOc1ccc(/C=C(/C)C(=O)N[C@@H]2[C@H](O)[C@@H](O)[C@H]3OCO[C@H]3[C@@H]2O)cc1I | 100 µg/mL (≈ 193 µM) | – | –
19 | C=CCOc1ccc(/C=C(\C)C(=O)N[C@@H]2[C@H](O)[C@@H](O)[C@H]3OCO[C@H]3[C@@H]2O)c(F)c1F | 25 µg/mL (≈ 58.5 µM) | > 200 µg/mL | –
20 | C=CCOc1ccc(/C=C(/C)C(=O)N[C@@H]2[C@H](O)[C@@H](O)[C@H]3OCO[C@H]3[C@@H]2O)cc1C(=O)O | > 200 µg/mL | > 200 µg/mL | –
21 | C=CCOc1ccc(/C=C(/C)C(=O)N[C@@H]2[C@H](O)[C@@H](O)[C@H]3OCO[C@H]3[C@@H]2O)cc1NC | > 200 µg/mL | > 200 µg/mL | –
22 | C=CCOc1ccc(/C=C(/C)C(=O)N[C@@H]2[C@H](O)[C@@H](O)[C@H]3OCO[C@H]3[C@@H]2O)cc1C | 6.25 µg/mL (≈ 15.4 µM) | 50 µg/mL (≈ 123 µM) | –
23 | C=CCOc1c(O)cc(/C=C(/C)C(=O)N[C@@H]2[C@H](O)[C@@H](O)[C@H]3OCO[C@H]3[C@@H]2O)cc1C#N | > 200 µg/mL | > 200 µg/mL | –
24 | C=CCOc1ccc(/C=C(/C)C(=O)N[C@@H]2[C@H](O)[C@@H](O)[C@H]3OCO[C@H]3[C@@H]2O)cc1Cl | 3.13 µg/mL (≈ 7.35 µM) | – | –
25 | C=CCOc1c(C)cc(/C=C(/C)C(=O)N[C@@H]2[C@H](O)[C@@H](O)[C@H]3OCO[C@H]3[C@@H]2O)cc1C | > 200 µg/mL | > 200 µg/mL | –
26 | C=CCOc1ccc(/C=C(\C)C(=O)N[C@@H]2[C@H](O)[C@@H](O)[C@H]3OCO[C@H]3[C@@H]2O)c(OC)c1 | > 200 µg/mL | > 200 µg/mL | –
27 | C=CCOc1c(O)cc(/C=C(/C)C(=O)N[C@@H]2[C@H](O)[C@@H](O)[C@H]3OCOC3[C@@H]2O)cc1OC (single isomer, unassigned) | > 200 µg/mL | > 200 µg/mL | –
28 | CC(=O)[C@H]1O[C@@H](Oc2ccc(C=C(C)C(=O)N[C@@H]3[C@H](O)[C@@H](O)[C@H]4OCO[C@H]4[C@@H]3O)cc2O)[C@@H](O)[C@@H]1O [HYGROMYCIN A] | 0.78 µg/mL (≈ 1.52 µM) | 0.78 µg/mL (≈ 1.52 µM) | –

— ChEMBL document CHEMBL1127187, “Semisynthetic modification of hygromycin A. 2. synthesis and antibacterial activity of aryl analogs” (1993)
